Laboratory results published in PMC4360378 (Journal of Medicinal Chemistry, 2015).

How the values were obtained:
human La antigen = biological target: T1, human La antigen (Homo sapiens, UniProt P05455); assay: ALARM NMR; type: binding; settings: for ALARM NMR reactivity: 200 μM test compounds, absence of DTT, prevented by 20 mM DTT; for La protein conformation in ALARM NMR: without the inclusion of DTT
T1 sequence (P05455 100-324): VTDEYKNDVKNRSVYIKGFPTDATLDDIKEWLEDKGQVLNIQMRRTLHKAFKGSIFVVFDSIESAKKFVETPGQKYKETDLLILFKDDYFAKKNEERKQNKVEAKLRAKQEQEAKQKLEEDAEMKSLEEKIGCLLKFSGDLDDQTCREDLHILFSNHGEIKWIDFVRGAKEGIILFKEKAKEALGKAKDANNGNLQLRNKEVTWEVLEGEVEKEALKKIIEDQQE

yeast Rtt109 = biological target: T2, yeast Rtt109 (Saccharomyces cerevisiae, UniProt Q07794); assay: Protein mass spectrometry; type: binding; settings: 100 μM compound, 10 μM protein, 30 °C, 60 min; LC–MS/MS
T2 sequence (Q07794 1-436): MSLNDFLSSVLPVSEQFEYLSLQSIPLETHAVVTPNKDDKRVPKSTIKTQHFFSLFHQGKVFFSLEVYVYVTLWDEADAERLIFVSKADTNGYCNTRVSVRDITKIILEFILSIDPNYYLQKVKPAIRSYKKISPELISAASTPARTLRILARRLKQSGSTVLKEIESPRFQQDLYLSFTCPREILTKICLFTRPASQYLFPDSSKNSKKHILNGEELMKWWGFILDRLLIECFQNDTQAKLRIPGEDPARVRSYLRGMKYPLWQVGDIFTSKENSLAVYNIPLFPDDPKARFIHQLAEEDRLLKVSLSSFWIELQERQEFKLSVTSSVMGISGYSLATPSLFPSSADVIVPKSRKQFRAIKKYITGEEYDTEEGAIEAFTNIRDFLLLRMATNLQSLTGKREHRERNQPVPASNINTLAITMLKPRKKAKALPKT
T2 sequence (P53853 1-264 partner): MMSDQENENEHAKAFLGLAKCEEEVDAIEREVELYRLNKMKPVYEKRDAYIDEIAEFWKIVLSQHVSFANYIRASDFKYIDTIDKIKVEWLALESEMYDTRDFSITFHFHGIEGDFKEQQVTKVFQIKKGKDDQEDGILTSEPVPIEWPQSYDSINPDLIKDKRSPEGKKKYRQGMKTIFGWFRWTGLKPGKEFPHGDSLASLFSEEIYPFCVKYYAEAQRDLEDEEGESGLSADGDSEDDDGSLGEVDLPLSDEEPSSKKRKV

yeast Rtt109–Vps75 = biological target: T3, yeast Rtt109–Vps75 (Saccharomyces cerevisiae, UniProt Q07794); assay: [3H]-acetyl-CoA HAT assay, Rtt109; type: biochemical; settings: 1 mM DTT; results similar versus Rtt109-Vps75, p300, and Gcn5
T3 sequence (Q07794 1-436): T2 sequence (Q07794 1-436)
T3 sequence (P53853 1-264 partner): T2 sequence (P53853 1-264 partner)

[1] = Stability in HTS buffer by UPLC–MS; type: physicochemical; settings: HTS buffer pH 8.0, UPLC–MS
yeast Vps75 = biological target: T4, yeast Vps75 (Saccharomyces cerevisiae, UniProt P53853); assay: Protein mass spectrometry; type: binding; settings: 100 μM compound, 10 μM protein, 30 °C, 60 min; LC–MS/MS
T4 sequence (P53853 1-264): T2 sequence (P53853 1-264 partner)
T4 sequence (Q07794 1-436 partner): T2 sequence (Q07794 1-436)

Row | ALARM NMR reactivity (human La antigen) | (+) DTT IC50 effect (yeast Rtt109–Vps75) | SMILES | also measured
1 | covalently modify cysteines | increase | O=C(O)CCSc1cc(NS(=O)(=O)c2ccc(Br)cc2)c2ccccc2c1O [6a] | Peptide adduct detected, Vps75 (yeast Vps75): forms a detectable adduct with mono-oxidized C21; La protein conformation in ALARM NMR (human La antigen): strongly perturbed
2 | covalently modify cysteines | – | O=S(=O)(Nc1cc(Sc2ncn[nH]2)c(O)c2ccccc12)c1ccc2ccccc2c1 [6b] | La protein conformation in ALARM NMR (human La antigen): strongly perturbed
3 | – | increase | O=C(O)CSc1cc(NS(=O)(=O)c2ccc(C(=O)O)cc2)c2ccccc2c1O [6c] | –
4 | – | increase | O=S(=O)(Nc1cc(Cl)c(O)c2ccccc12)c1ccc(Br)cc1 [6e] | –
5 | – | increase | O=C(O)CSc1cc(NS(=O)(=O)c2ccc(Br)cc2)c2ccccc2c1O [6y] | –

Second part, the compound before the results:

Row | SMILES | ALARM NMR reactivity (human La antigen) | (+) DTT IC50 effect (yeast Rtt109–Vps75) | also measured
6 | O=C(O)c1ccc(-n2nnnc2SC2=CS(=O)(=O)c3ccccc32)cc1 [1a] | covalently modify cysteines | increase | Peptide adduct detected, Rtt109 (yeast Rtt109): forms a detectable adduct with C94
7 | O=[N+]([O-])c1cc(Br)c2nsnc2c1Sc1ncnc2[nH]cnc12 [2a] | covalently modify cysteines | increase | stability in HTS buffer [1]: stable
8 | O=[N+]([O-])c1c(Sc2nnnn2-c2ccccc2)cc(Cl)c2nonc12 [2e] | – | increase | –
9 | CNc1nc(-c2ccccc2)[n+](-c2ccccc2)s1.[Cl-] [3a] | covalently modify cysteines | – | –
10 | O=C1CC(Sc2nnc(-c3ccccc3O)o2)C(=O)N1c1ccc(Br)cc1 (stereo not shown) [4a] | covalently modify cysteines | increase | stability in HTS buffer [1]: thiol leaving groups (e.g., 4a″) were detected
11 | CCN(CC)c1ccc2c(C)c(-c3ccc(N4C(=O)C=CC4=O)cc3)c(=O)oc2c1 [CPM, N-[4-(7-diethylamino-4-methylcoumarin-3-yl)phenyl]maleimide, reference compound] | – | increase | –
12 | OC(Cn1cncn1)(Cn1cncn1)c1ccc(F)cc1F [fluconazole, reference compound] | – | none | –
